“Also recorded” adds a separate entry of the source.
Test system: medullary pheochromocytoma (PC12) cells
Test: Effect on morphology (differentiation) of PC12 cells
Format: cell-based
Conditions: for Cell morphology: morphologies seen after treatment (list per substance, not tied to one concentration); for 1% FBS (cell differentiation) / 10% FBS (cell differentiation): six days after treatment
Experimental: Cells: PC12 cell line derived from medullary pheochromocytoma cells were used to undertake studies described bellow. PC 12 cells were obtained from the American Type Culture Collection and maintained in RPMI-1640 supplemented with 10% fetal bovine serum (HYCLONE Inc), penicillin (100 U/ml) and streptomycin (100 μg/ml).
Methods: To evaluate the effect of colostrum, colostrinin and its component peptides on cell differentiation 3×10^4 logarithmically replicating (70% confluence) PC12 cells were seeded in 24× well plates and cells were allowed to adhere and grow for 24 hours. Serum containing media were aspirated and replaced for serum-free RPMI containing appropriate amount of antibiotics. In four parallel, increasing concentrations (0.1, 1, 10 and 100 μg per ml) of colostrum, colostrinin and its component peptides were added directly into the media and incubated at 37° C. As a positive control, nerve growth factor (NGF) 7S (Gibco-BRL) was used at 100 ng per ml concentration (Chao, Cell, 69, 995-997 (1992); and Marshall et al., Cell 80, 179-185 (1995)). Phorbol 12-myristate 13-acetate (TPA: 10 ng per mil) was used as a negative control. Eight hours later the media were changed and RPMI-1640 was added containing 1% or 10% fetal bovine serum. The cultures were microscopically investigated 2nd, 4th and 6th days after treatment. Six days after treatment cells were fixed with paraformaldehyde (4%) and stained with 0.01% crystal violet solution. Excess of dyes were removed by ethanol washing. The final evaluation took place using a microscopy (Axiophot2 Zeiss Inc., Germany).

Compound | Cell morphology | 1% FBS (cell differentiation) (0.1 μg/ml) | 1% FBS (cell differentiation) (1.0 μg/ml) | 1% FBS (cell differentiation) (10 μg/ml) | 1% FBS (cell differentiation) (100 μg/ml) | 10% FBS (cell differentiation) (0.1 μg/ml) | 10% FBS (cell differentiation) (1.0 μg/ml) | 10% FBS (cell differentiation) (100 μg/ml) | 10% FBS (cell differentiation) (10 μg/ml)
CCCCCCCCCCCCCC(=O)O[C@@H]1[C@@H](C)[C@@]2(O)[C@@H](C=C(CO)C[C@]3(O)C(=O)C(C)=C[C@@H]23)[C@@H]2C(C)(C)[C@]12OC(C)=O [TPA, Phorbol 12-myristate 13-acetate, reference compound] | rounded | – | – | – | – | – | – | – | –
DLEMPVLPVEPFPFV [SEQ ID NO:5] | fibroblast-like; also recorded: epitheloid; also recorded: neuron-like | − (− = ≦0.01% (back-ground)) | − (− = ≦0.01% (back-ground)) | − (− = ≦0.01% (back-ground)) | − (− = ≦0.01% (back-ground)) | − (− = ≦0.01% (back-ground)) | − (− = ≦0.01% (back-ground)) | + (+ = 1%) | –
DQPPDVEKPDLQPFQVQS [SEQ ID NO:3] | fibroblast-like; also recorded: neuron-like | − (− = ≦0.01% (back-ground)) | − (− = ≦0.01% (back-ground)) | − (− = ≦0.01% (back-ground)) | − (− = ≦0.01% (back-ground)) | − (− = ≦0.01% (back-ground)) | – | + (+ = 1%) | + (+ = 1%)
LFFFLPVVNVLP [SEQ ID NO:4] | fibroblast-like; also recorded: epitheloid; also recorded: neuron-like | − (− = ≦0.01% (back-ground)) | − (− = ≦0.01% (back-ground)) | − (− = ≦0.01% (back-ground)) | − (− = ≦0.01% (back-ground)) | − (− = ≦0.01% (back-ground)) | + (+ = 1%) | ++ (++ = 1-5%) | ++ (++ = 1-5%)
LKPFPKLKVEVFPFP [SEQ ID NO:8] | fibroblast-like; also recorded: neuron-like | − (− = ≦0.01% (back-ground)) | − (− = ≦0.01% (back-ground)) | − (− = ≦0.01% (back-ground)) | − (− = ≦0.01% (back-ground)) | − (− = ≦0.01% (back-ground)) | ++ (++ = 1-5%) | − (− = ≦0.01% (back-ground)) | + (+ = 1%)
LQTPQPLLQVMMEPQGD [SEQ ID NO:2] | fibroblast-like; also recorded: neuron-like | − (− = ≦0.01% (back-ground)) | − (− = ≦0.01% (back-ground)) | + (+ = 1%) | − (− = ≦0.01% (back-ground)) | – | ++ (++ = 1-5%) | + (+ = 1%) | ++ (++ = 1-5%)
MPQNFYKLPQM [SEQ ID NO:6] | fibroblast-like; also recorded: epitheloid | − (− = ≦0.01% (back-ground)) | − (− = ≦0.01% (back-ground)) | − (− = ≦0.01% (back-ground)) | − (− = ≦0.01% (back-ground)) | − (− = ≦0.01% (back-ground)) | – | + (+ = 1%) | + (+ = 1%)
MQPPPLP [SEQ ID NO:1] | epitheloid; also recorded: neuron-like | − (− = ≦0.01% (back-ground)) | − (− = ≦0.01% (back-ground)) | − (− = ≦0.01% (back-ground)) | − (− = ≦0.01% (back-ground)) | – | + (+ = 1%) | – | ++ (++ = 1-5%)
VESYVPLFP [SEQ ID NO:31] | fibroblast-like; also recorded: neuron-like | – | − (− = ≦0.01% (back-ground)) | − (− = ≦0.01% (back-ground)) | – | − (− = ≦0.01% (back-ground)) | – | – | –
VLEMKFPPPPQETVT [SEQ ID NO:7] | fibroblast-like; also recorded: neuron-like | − (− = ≦0.01% (back-ground)) | − (− = ≦0.01% (back-ground)) | − (− = ≦0.01% (back-ground)) | − (− = ≦0.01% (back-ground)) | − (− = ≦0.01% (back-ground)) | + (+ = 1%) | – | + (+ = 1%)
